Reference: patent US20180155757A1, “IDENTIFICATION OF BACTERIA THAT ARE RESISTANT TO CARBAPENEMS BY MEMBRANE IMPERVIOUSNESS” (BIOMÉRIEUX, priority 2015, published 2018)
Where two headings read alike, the source gives them in different places.

Legend:
Assay in all cases: Etest MIC of indicator carbapenems on MH II agar without/with PMBN
Format in all cases: cell-based
E. aerogenes 9306071 = settings: E. aerogenes 9306071; [PMBN] MIC/10
Method: (§1) The determinations of antibiotic MIC were carried out on solid culture media with the Etest® method. To do this, Etest® strips (bioMérieux, France) were used: • Etest® Imipenem IM 32, and • Etest® Ertapenem ETP 32, and also solid culture media, differing from one another by virtue of their non-inhibitory concentrations of PMBN.
(§2) These solid culture media are prepared in Petri dishes (0=145 mm; V=50 ml) on a base of MH II Agar (Becton Dickinson®, United States), more or less supplemented with PMBN. The PMBN concentrations range from 0 up to concentrations equivalent to one fifth of the MIC of PMBN (⅕ MICPMBN).
(§3) Using a swab and the Retro C80™ rota-plater (bioMérieux, France), the culture media were inoculated with the bacteria, originating from an inoculum of 0.5 McFarland, prepared in 0.85% NaCl solution from colonies subcultured the day before on MH II agar.
(§4) The various Etest® strips are then deposited on the surface of the culture media. After 16 to 20 hours of incubation at 35° C., the MICS were read.
(§5) To do this, imipenem and ertapenem were used as indicator carbapenems. Non-inhibitory concentrations of PMBN, equivalent to concentrations of one tenth ( 1/10), one eighth (⅛) and one fifth (⅕) of the MIC of PMBN, were applied.
(§6) In the light of the MICPMBN values previously identified, very predominantly much higher than 300 μg/ml, the following standard concentrations were retained and applied to the bacterial strains to be tested: 50, 100, 150, 200 and 300 μg/ml.
(§7) By way of indicator carbapenems according to the invention, in addition to imipenem (IM) and ertapenem (ETP), meropenem (MP) was also tested. Like the other two antibiotics, meropenem was used in the form of Etest® strips (Etest® Meropenem MP 32 from the company bioMérieux, France).
(§8) The methods used to prepare the new culture media and to carry out the antibiotic-sensitivity tests are identical to those described above.

E. cloacae 9402034 = test system: E. cloacae 9402034
Method: as §1, §2, §3, §4, §5, §6, §7, §8

E. coli 1204043 = test system: E. coli 1204043
Method: as §1, §2, §3, §4, §5, §6, §7, §8

[1] = test system: E. cloacae 1204056 (membrane impermeability)
Method: as §1, §2, §3, §4, §7, §8

[2] = test system: K. pneumoniae KP 63 (porin−); settings: Klebsiella pneumoniae
Method: as §1, §2, §3, §4, §7, §8

[3] = test system: E. cloacae 1008080 (IMP producer); settings: in µg/mL
Method: as §1, §2, §3, §4, §7, §8

[4] = test system: E. cloacae 1008074 (VIM producer)
Method: as §1, §2, §3, §4, §7, §8

[5] = test system: K. pneumoniae 1108003 (KPC-3 producer)
Method: as §1, §2, §3, §4, §7, §8

[6] = test system: E. cloacae 1204051 (membrane impermeability)
Method: as §1, §2, §3, §4, §7, §8

With C[C@@H](O)[C@H]1C(=O)N2C(C(=O)O)=C(SCCN=CN)C[C@H]12 [IM, imipenem] as the compound, how does the MIC (E. aerogenes 9306071) read?
The MIC was 4 mg/L.

And the MIC (E. cloacae 9402034; E. cloacae 9402034 (membrane impermeability), [PMBN] 0, Table 4a)?
The MIC was over 32 mg/L.

What about the MIC (E. cloacae 9402034; E. cloacae 9402034 (membrane impermeability), [PMBN] 100, Table 4a) of the same compound?
Its MIC is 8 mg/L.

And the MIC (E. cloacae 9402034; E. cloacae 9402034 (membrane impermeability), [PMBN] 200, Table 4a)?
Its MIC is 12 mg/L.

And the MIC (E. cloacae 9402034; E. cloacae 9402034 (membrane impermeability), [PMBN] 300, Table 4a)?
Its MIC is 12 mg/L.

And the MIC (E. cloacae 9402034; E. cloacae 9402034, [PMBN] 0, Table 3)?
Its MIC is 16 mg/L.

And the MIC (E. cloacae 9402034; E. cloacae 9402034, [PMBN] MIC/5)?
Its MIC is 8 mg/L.

What about the MIC (E. cloacae 9402034; E. cloacae 9402034, [PMBN] MIC/8) of the same compound?
The MIC was 8 mg/L.

And the MIC (E. cloacae 9402034; E. cloacae 9402034, [PMBN] MIC/10)?
Its MIC is 8 mg/L.

What about the MIC (E. coli 1204043; E. coli 1204043 (membrane impermeability), [PMBN] 0, Table 4a, in µg/mL) of the same compound?
Its MIC is over 32.

And the MIC (E. coli 1204043; E. coli 1204043 (membrane impermeability), [PMBN] 100, Table 4a, in µg/mL)?
The MIC was 6-8.

And the MIC (E. coli 1204043; E. coli 1204043 (membrane impermeability), [PMBN] 200, Table 4a, in µg/mL)?
The MIC was 3-6.

And the MIC (E. coli 1204043; E. coli 1204043 (membrane impermeability), [PMBN] 300, Table 4a, in µg/mL)?
Its MIC is 3.

And the MIC (E. coli 1204043; E. coli 1204043, [PMBN] 0, Table 3, in µg/mL)?
The MIC was 8.

And the MIC (E. coli 1204043; E. coli 1204043, [PMBN] MIC/5, in µg/mL)?
Its MIC is 1.

What about the MIC (E. coli 1204043; E. coli 1204043, [PMBN] MIC/8, in µg/mL) of the same compound?
The MIC was 1.

What about the MIC (E. coli 1204043; E. coli 1204043, [PMBN] MIC/10, in µg/mL) of the same compound?
The MIC was 2.

And the MIC (E. coli 1204043; Escherichia coli, 1204043, E. coli 1204043 (porin−), [PMBN] 0, Table 4, read-out: MIC)?
The MIC was 24 mg/L.

And the MIC (E. coli 1204043; Escherichia coli, 1204043, E. coli 1204043 (porin−), [PMBN] 150 μg/ml, Table 4, read-out: MIC)?
The MIC was 1 mg/L.

And the MIC (E. coli 1204043; Escherichia coli, 1204043, E. coli 1204043 (porin−), [PMBN] 200 μg/ml, Table 4, read-out: MIC)?
The MIC was 0.25 mg/L.

What about the MIC ([1]; [PMBN] 0, Table 4a) of the same compound?
Its MIC is 6 mg/L.

And the MIC ([1]; [PMBN] 100, Table 4a)?
Its MIC is 2 mg/L.

What about the MIC ([1]; [PMBN] 200, Table 4a) of the same compound?
The MIC was 1.5 mg/L.

What about the MIC ([1]; [PMBN] 300, Table 4a) of the same compound?
Its MIC is 1 mg/L.

And the MIC ([2]; [PMBN] 0)?
The MIC was 0.25 mg/L.

What about the MIC ([2]; [PMBN] 50 μg/ml) of the same compound?
The MIC was 0.25 mg/L.

What about the MIC ([2]; [PMBN] 100 μg/ml) of the same compound?
The MIC was 0.125 mg/L.

And the MIC ([2]; [PMBN] 150 μg/ml)?
The MIC was 0.125 mg/L.

What about the MIC ([2]; [PMBN] 200 μg/ml) of the same compound?
Its MIC is 0.125 mg/L.

And the MIC ([3]; [PMBN] 0, Table 4a)?
Its MIC is 1.

And the MIC ([3]; [PMBN] 100, Table 4a)?
Its MIC is 12.

What about the MIC ([3]; [PMBN] 200, Table 4a) of the same compound?
Its MIC is 3.

And the MIC ([3]; [PMBN] 300, Table 4a)?
Its MIC is 6.

And the MIC ([4]; [PMBN] 0, Table 4a)?
Its MIC is 3 mg/L.

What about the MIC ([4]; [PMBN] 100, Table 4a) of the same compound?
The MIC was 3 mg/L.

What about the MIC ([4]; [PMBN] 200, Table 4a) of the same compound?
The MIC was 8 mg/L.

What about the MIC ([4]; [PMBN] 300, Table 4a) of the same compound?
Its MIC is 6 mg/L.

And the MIC ([5]; [PMBN] 0, Table 4a)?
Its MIC is 6 mg/L.

What about the MIC ([5]; [PMBN] 100, Table 4a) of the same compound?
Its MIC is 8 mg/L.

And the MIC ([5]; [PMBN] 200, Table 4a)?
Its MIC is 12 mg/L.

What about the MIC ([5]; [PMBN] 300, Table 4a) of the same compound?
Its MIC is 12 mg/L.

What about the MIC ([6]; [PMBN] 0, Table 4a) of the same compound?
The MIC was 1.5 mg/L.

And the MIC ([6]; [PMBN] 100, Table 4a)?
Its MIC is 1.5 mg/L.

And the MIC ([6]; [PMBN] 200, Table 4a)?
The MIC was 0.75 mg/L.

And the MIC ([6]; [PMBN] 300, Table 4a)?
The MIC was 0.75 mg/L.
